Among the test systems are NCI-H226; UO-31; HCC 2998; HCT-15; CAKI-1; A498; SR; SNB-19; UACC-257; SK-MEL-5; M14; OVCAR-5; OVCAR-4; IGROV-1; SW-620; CCRF-CEM; SN12C; NCI-H460; DU-145.
What all share (assay): NCI anticancer screen, dose series, 48 h

The source of these data is ChEMBL document CHEMBL1201862, “PubChem BioAssay data set” (2004).

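Where inhibition never reached the appropriate level, the endpoint shown equals the highest concentration tested. Otherwise, values were interpolated linearly from a five-concentration, 48-hour dose response in 96-well plates. GI50: concentration for 50% inhibition of growth.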 The source made the active and inactive calls. Cut-off read from the data, not from the text of the source: active = GI50 up to about 1.1 µM and inactive = higher. Some results are limits rather than exact numbers.

On to `CN/C(=N/C#N)NCc1ccccc1`, for which the GI50 with NCI-H226 was > 100 µM (inactive); with UO-31 it was > 100 µM (inactive); in the assay on HCC 2998 it was 27.4 µM (inactive); in the assay on HCT-15 it was above 100 µM; with CAKI-1 it was > 100 µM (inactive); in the assay on A498 it was > 100 µM (inactive). Moreover, the GI50 with SR, with SNB-19, with UACC-257, in the assay with SK-MEL-5, with M14 and in the assay with OVCAR-5 was > 100 µM (inactive) each time. For the same compound, the GI50 with OVCAR-4, with IGROV-1, in the assay with SW-620, in the assay with CCRF-CEM, with SN12C and in the assay with NCI-H460 was > 100 µM (inactive) each time.

Turning to `COc1ccc(OC)c(C2CCCc3c2cnc2nc(N)nc(N)c32)c1` (stereo unspecified), the GI50 was > 100 µM (inactive) with NCI-H226; < 0.01 µM (active) in the assay on HCC 2998; below 0.01 µM in the assay on HCT-15; 0.0982 µM (active) in the assay with CAKI-1; < 0.01 µM (active) in the assay with SR; 0.0703 µM (active) in the assay with SNB-19. The GI50 is < 0.01 µM (active) in the assay on UACC-257; < 0.01 µM (active) in the assay on SK-MEL-5; < 0.01 µM (active) in the assay with M14; 0.0132 µM (active) with DU-145; > 100 µM (inactive) in the assay with OVCAR-4; < 0.01 µM (active) in the assay with IGROV-1. Besides, the GI50 in the assay with SN12C and in the assay on NCI-H460 was < 0.01 µM (active) in each case.

`Cc1cc(=O)oc2c(CNC(C)C(=O)O)c(O)ccc12` (stereo unspecified): the GI50 with NCI-H226 is > 100 µM (inactive); in the assay on UO-31, 36.9 µM (inactive); in the assay on HCC 2998, > 100 µM (inactive); in the assay on HCT-15 it was above 100 µM; in the assay with CAKI-1, > 100 µM (inactive); in the assay with SR it was > 100 µM (inactive). For the same compound, the GI50 in the assay with SNB-19, with UACC-257, in the assay with SK-MEL-5, with M14, in the assay on DU-145 and with OVCAR-5 was > 100 µM (inactive) each time. Moreover, the GI50 with OVCAR-4, in the assay with IGROV-1, in the assay with SW-620, with CCRF-CEM, in the assay with SN12C and in the assay on NCI-H460 was > 100 µM (inactive) each time.

Take `CC(NC(=O)c1ccc(NP(=O)(OCc2ccc([N+](=O)[O-])o2)N(C)CCCCCl)cc1)c1ccc(OCC2CCCCC2)c(C(N)=O)c1` (stereo unspecified): the GI50 in the assay with NCI-H226 was 16.4 µM (inactive); with UO-31, 43.4 µM (inactive); with HCC 2998, 11.4 µM (inactive); in the assay on HCT-15 it was 46 µM; in the assay with CAKI-1, 26.4 µM (inactive); in the assay on A498 it was 16.7 µM (inactive). Further, the GI50 with SR is 10.5 µM (inactive); in the assay on SNB-19 it was 28.2 µM (inactive); in the assay on UACC-257, 13.4 µM (inactive); in the assay with SK-MEL-5, 4.56 µM (inactive); in the assay with DU-145, 29.3 µM (inactive); with OVCAR-5 it was 25.4 µM (inactive). The GI50 in the assay with OVCAR-4 is 12.2 µM (inactive); with IGROV-1 it was 15.9 µM (inactive); in the assay on SW-620, 28.4 µM (inactive); in the assay with CCRF-CEM, 0.904 µM (active); in the assay on SN12C it was 18.9 µM (inactive); in the assay with NCI-H460, 17.1 µM (inactive).

Consider `CCCC(=O)OC1=C(c2ccccc2)Sc2ccccc2-n2cccc21`, for which the GI50 in the assay with HCC 2998 was > 10 µM (inactive); with HCT-15, above 10 µM; in the assay with CAKI-1 it was > 10 µM (inactive); with SR, > 10 µM (inactive); with UACC-257 it was > 10 µM (inactive); in the assay on SK-MEL-5, > 10 µM (inactive). Further, the GI50 with M14, with DU-145, in the assay on OVCAR-4, in the assay on IGROV-1, in the assay on SW-620 and in the assay with CCRF-CEM was > 10 µM (inactive) throughout. In addition, the GI50 with SN12C is > 10 µM (inactive).
